The record followed here is ChEMBL document CHEMBL6096666, “Design, synthesis and biological evaluation of alginate oligosaccharide derivatives” (Bioorg Med Chem Lett, 2025).

For assay [1], the system named is HK-2. The assay can be described thus: Anti-inflammatory activity against H/R induced damage in human HK-2 cells assessed as inhibition of TLR4 protein expression pretreated with compound followed by hypoxic reoxygenation induction. The class given is functional, cell-based.
The next assay is filed under the species Rattus norvegicus. Description: Protection against kidney ischemia-reperfusion injury in rat model assessed as decrease in blood creatinine level. The class given is functional, organism-based.
The test system of assay [2] is HK-2. Description: Anti-inflammatory activity against H/R induced damage in human HK-2 cells assessed as inhibition of MyD88 protein expression pretreated with compound followed by hypoxic reoxygenation induction. The class given is functional, cell-based.
For assay [3], the system named is HK-2. Description: Anti-inflammatory activity against H/R induced damage in human HK-2 cells assessed as inhibition of IL-1beta protein expression pretreated with compound followed by hypoxic reoxygenation induction. The class given is functional, cell-based.
Assay [4] has as its system HK-2. Description: Anti-inflammatory activity against H/R induced damage in human HK-2 cells assessed as inhibition of p-NFkappaB protein expression pretreated with compound followed by hypoxic reoxygenation induction. The class given is functional, cell-based.

The source made the active and inactive calls. The rule behind the calls is not given here.

In the case of `O=C(O)[C@@H]1C[C@@H](O)[C@@H](O)[C@H](O[C@@H]2[C@@H](O)[C@@H](O)[C@H](O[C@@H]3[C@@H](O)[C@@H](O)[C@H](O[C@@H]4[C@@H](O)[C@@H](O)[C@@H](O)O[C@@H]4C(=O)O)O[C@@H]3C(=O)O)O[C@@H]2C(=O)O)O1`, in the assay with HK-2 [1], the outcome was Active.
As for `O=C(O)[C@@H]1C[C@@H](O)[C@@H](O)[C@H](O[C@@H]2[C@@H](O)[C@@H](O)[C@@H](O)O[C@@H]2C(=O)O)O1`, the result in the assay listed under Rattus norvegicus and in the assay on HK-2 [1] was Active.
As to `O=C(O)[C@@H]1C[C@@H](O)[C@@H](O)[C@H](O[C@@H]2[C@@H](O)[C@@H](O)[C@H](O[C@H]([C@@H](O)[C@@H](O)C(=O)O)[C@H](O)C(=O)O)O[C@@H]2C(=O)O)O1`, the outcome with HK-2 [2], with HK-2 [1], in the assay on HK-2 [3] and in the assay on HK-2 [4] was Active.
For `O=C(O)[C@@H]1C[C@@H](O)[C@@H](O)[C@H](O[C@@H]2[C@@H](O)[C@@H](O)[C@H](O[C@@H]3[C@@H](O)[C@@H](O)[C@@H](O)O[C@@H]3C(=O)O)O[C@@H]2C(=O)O)O1`, the result in the assay listed under Rattus norvegicus and in the assay on HK-2 [3] was Active.
